Measured values: patent publication US20090281278A1, “MODIFIED MOLECULES WHICH PROMOTE HEMATOPOIESIS” (priority 2006, published 2009)
Entries after “also recorded” stand apart in the source; their conditions may differ. Bridges are numbered along the chain shown (N, C = ends). Where no end group is shown, it is not given here. [ ]: non-standard residue; d: D form. 1Nal = N[C@@H](Cc1cccc2ccccc12)C(=O)O

Test system: TF-1 cells
Experiment: TF-1 proliferation assay (MTT/MTS, number of viable cells)
Assay type: cell-based, human
Conditions: for efficacy and potency (EPO mimetic activity) compared with reference peptides: TF-1 proliferation, normalized plots
Protocol: An experiment was performed in a standard TF-1 cell assay as recommended by the European Pharmacopoe for the determination of EPO-like activity in vitro (please also see below). Basically, TF-1 cells (their proliferation being dependent from the presence of EPO-like activity) are cultured in the presence various concentrations of EPO or EPO-mimetic substances. The resulting cell numbers are quantified using colorimetric MTT-assay and photometric measurements.
TF1 cells in logarithmic growth phase (2×10^5-1×10^6 cells/ml grown in RPMI with 20% fetal calf serum (FCS) and 0.5 ng/ml IL-3) were counted, and the number of cells needed to perform an assay were centrifuged (5 min. 1500 rpm) and resuspended in RPMI with 5% FCS without IL-3 at 300 000 cells/ml. Cells were precultured in this (starvation) medium without IL-3 for 48 hours. Before starting the assay the cells were counted again.
Shortly before starting the assay stock solutions of peptides and EPO were prepared. Peptides were weighed and dissolved in RPMI with 5% FCS up to a concentration of 1 mM, 467 μM or 200 μM. EPO stock solutions were 10 nM or 20 nM. 292 μl of these stock solutions were pipetted into one well of a 96 well culture plate—one plate was taken for each substance to be tested. Two hundred μl of RPMI with 5% FCS were pipetted into seventeen other wells in each plate. Ninety-two μl of stock solution were pipetted into a well containing 200 μl medium. The contents were mixed, and 92 μl from this well was transferred to the next, and so forth. This way a dilution series (18 dilutions) of each substance was prepared such that in each consecutive well the concentration was 1:√10 of the concentration in the well before that. From each well 3×50 μl was transferred to three empty wells. This way each concentration of substance was measured in quadruplicate. Note that the uppermost and lowermost line of wells of each plate was left void.
Pre-treated (starved) cells were centrifuged (5 min. 1500 rpm) and resuspended in RPMI with 5% FCS at a concentration of 200 000 cells per ml. […]
To measure the number of live cells per well, ready-to-use […] (Promega, CellTiter 96 Aqueous One Solution Cell Proliferation Assay) was thawed in a 37° C. water bath. […] Twenty-five μl of a 10% SDS solution was added, and plates were measured in an ELISA reader (Genios, Tecan). […]
For optimal results TF-1 cells should be cultured for two days in the absence of any cytokine (starved) before starting the assay. Three days after starting the assay, cell proliferation is measured indirectly by assaying the number of viable cells.
A tetrazolium reagent, called MTS, is added which is reduced to coloured formazan. […] The amount of formazan is measured spectrophotometrically. […]

Row | Substance | efficacy and potency (EPO mimetic activity) compared with reference peptides | agonist behaviour (maximal response compared with EPO) (peptides in their monomeric form)
1 | AGEM40—HES: peptide (AGEM40) HESylated according to the supravalence principle (Ac-CGGTYSCHFGKLT[1Nal]VCKKQRGGGTYSCHFGKLT[1Nal]VCKKQRG-NH2; disulfide 7-16, 27-36 (inferred); not fully specified (residue 1); also: HES (hydroxyethyl starch) conjugate, maleimide-linked) | highly effective and potent | 
2 | Ac-GGTYSCHFGKLT-Na1-VCKKQRG-Am (Ac-GGTYSCHFGKLT[1Nal]VCKKQRG-NH2; cysteine pairing not given here) [BB68] | even more effective than EMP1 and BB49; also recorded: improved effect | 
3 | Ac-GGTYSCHFGKLTWVCKKQGG (cysteine pairing not given here) [BB49] | efficacy and potency in the same range as EMP1 | 
4 | GGTYSCHFGPLTWVCKPQGG [EMP1, reference compound] |  | partial agonists
